Test results reported in patent EP0271271B1, “Pharmaceutical preparations” (BEECHAM GROUP PLC, priority 1986, dated 1988).

Test system: conscious male spontaneously hypertensive rats (SHR)
Test: Systolic blood pressure by inflatable tail cuff in conscious spontaneously hypertensive rats
Assay type: in vivo
Procedure: Potentiation of the anti-hypertensive response to Compounds of formula (I) has been observed in conscious male spontaneously hypertensive rats (SHR) when the compounds were combined with the angiotensin I converting enzyme inhibitor enalapril. For the purpose of the experiment 36 rats were allotted at random to 4 groups, each of 9 rats. Systolic blood pressure (SBP) was measured non-invasively using an inflatable tail cuff technique as described in the aforementioned European Patent references. The protocol of the experiment was as follows: [table] […] The results were as shown in Table I. The protocol of the experiment for pinacidil was as follows: [table] […]

Structure (SMILES): CN1CCCN(C2c3cc(C#N)ccc3OC(C)(C)C2O)C1=O (stereo not drawn) [Compound 3, 6-cyano-3,4-dihydro-2,2-dimethyl-trans-4-(N-3-methyltetrahydro-2-pyrimidone)-2H-benzo[b]pyran-3-ol]
- SBP change (quantity not headed in table; as % change of Table I) (Compound 3 2.0 mg/kg po alone, time 0.75, time-0 value 253±6): 0±3
- SBP change (quantity not headed in table; as % change of Table I) (Compound 3 2.0 mg/kg po alone, time 1.75, time-0 value 253±6): -20±3
- SBP change (quantity not headed in table; as % change of Table I) (Compound 3 2.0 mg/kg po alone, time 2.75, time-0 value 253±6): -22±3
- SBP change (quantity not headed in table; as % change of Table I) (Compound 3 2.0 mg/kg po alone, time 4.75, time-0 value 253±6): -21±3

Structure (SMILES): CC(=O)NC1c2cc(C#N)ccc2OC(C)(C)C1O (stereo not drawn) [Compound 4, trans-4-N-acetylamino-6-cyano-3,4-dihydro-2,2-dimethyl-2H-benzo[b]pyran-3-ol]
- SBP change (quantity not headed in table; as % change of Table I) (Compound 4 0.15 mg/kg po alone, time 0.75, time-0 value 281±5): 0±2
- SBP change (quantity not headed in table; as % change of Table I) (Compound 4 0.15 mg/kg po alone, time 1.75, time-0 value 281±5): -26±4
- SBP change (quantity not headed in table; as % change of Table I) (Compound 4 0.15 mg/kg po alone, time 2.75, time-0 value 281±5): -23±4
- SBP change (quantity not headed in table; as % change of Table I) (Compound 4 0.15 mg/kg po alone, time 4.75, time-0 value 281±5): -13±2

Structure (SMILES): CCOC(=O)[C@H](CCc1ccccc1)N[C@@H](C)C(=O)N1CCC[C@H]1C(=O)O [Enalapril]
- SBP change (quantity not headed in table; as % change of Table I) (Compound 2 experiment: Compound (A) 3 mg/kg po alone, time 0.75, time-0 value 247±3): -9±1
- SBP change (quantity not headed in table; as % change of Table I) (Compound 2 experiment: Compound (A) 3 mg/kg po alone, time 1.75, time-0 value 247±3): -22±2
- SBP change (quantity not headed in table; as % change of Table I) (Compound 2 experiment: Compound (A) 3 mg/kg po alone, time 2.75, time-0 value 247±3): -14±3
- SBP change (quantity not headed in table; as % change of Table I) (Compound 2 experiment: Compound (A) 3 mg/kg po alone, time 4.75, time-0 value 247±3): -16±2
- SBP change (quantity not headed in table; as % change of Table I) (Compound 3 experiment: Compound (A) 3 mg/kg po alone, time 0.75, time-0 value 254±4): -8±2
- SBP change (quantity not headed in table; as % change of Table I) (Compound 3 experiment: Compound (A) 3 mg/kg po alone, time 1.75, time-0 value 254±4): -10±3
- SBP change (quantity not headed in table; as % change of Table I) (Compound 3 experiment: Compound (A) 3 mg/kg po alone, time 2.75, time-0 value 254±4): -12±4
- SBP change (quantity not headed in table; as % change of Table I) (Compound 3 experiment: Compound (A) 3 mg/kg po alone, time 4.75, time-0 value 254±4): -21±3
- SBP change (quantity not headed in table; as % change of Table I) (Compound 4 experiment: Compound (A) 3 mg/kg po alone, time 0.75, time-0 value 280±5): -4±2
- SBP change (quantity not headed in table; as % change of Table I) (Compound 4 experiment: Compound (A) 3 mg/kg po alone, time 1.75, time-0 value 280±5): -9±2
- SBP change (quantity not headed in table; as % change of Table I) (Compound 4 experiment: Compound (A) 3 mg/kg po alone, time 2.75, time-0 value 280±5): -12±3
- SBP change (quantity not headed in table; as % change of Table I) (Compound 4 experiment: Compound (A) 3 mg/kg po alone, time 4.75, time-0 value 280±5): -14±2
- % change (± sem) of SBP (Group 2: enalapril 3 mg/kg po at 0 h, vehicle at 0.75 h, time 0.75 h, initial SBP 257±3 mmHg): -8±2%
- % change (± sem) of SBP (Group 2: enalapril 3 mg/kg po at 0 h, vehicle at 0.75 h, time 1.75 h, initial SBP 257±3 mmHg): -11±4%
- % change (± sem) of SBP (Group 2: enalapril 3 mg/kg po at 0 h, vehicle at 0.75 h, time 2.75 h, initial SBP 257±3 mmHg): -15±2%
- % change (± sem) of SBP (Group 2: enalapril 3 mg/kg po at 0 h, vehicle at 0.75 h, time 4.75 h, initial SBP 257±3 mmHg, n=7): -17±2 (n=7) %
- % change (± s.e.m.) of SBP (Pinacidil experiment, Group 2: enalapril 3 mg/kg po at 0 h, vehicle at 0.75 h, time 0.75 h, initial SBP 274±6 mmHg): -4±1%
- % change (± s.e.m.) of SBP (Pinacidil experiment, Group 2: enalapril 3 mg/kg po at 0 h, vehicle at 0.75 h, time 1.75 h, initial SBP 274±6 mmHg): -14±3%
- % change (± s.e.m.) of SBP (Pinacidil experiment, Group 2: enalapril 3 mg/kg po at 0 h, vehicle at 0.75 h, time 2.75 h, initial SBP 274±6 mmHg): -16±3%
- % change (± s.e.m.) of SBP (Pinacidil experiment, Group 2: enalapril 3 mg/kg po at 0 h, vehicle at 0.75 h, time 4.75 h, initial SBP 274±6 mmHg, n=8): -17±3(n=8) %

Structure (SMILES): CC1(C)Oc2ccncc2[C@@H](N2CCCC2=O)[C@@H]1O (relative stereo) [Compound 2, trans-3,4-dihydro-2,2-dimethyl-4-(2-oxopyrrolidin-1-yl)-2H-pyrano[3,2-c]pyridin-3-ol]
- SBP change (quantity not headed in table; as % change of Table I) (Compound 2 0.6 mg/kg po alone, time 0.75, time-0 value 244±6): 1±2
- SBP change (quantity not headed in table; as % change of Table I) (Compound 2 0.6 mg/kg po alone, time 1.75, time-0 value 244±6): -20±2
- SBP change (quantity not headed in table; as % change of Table I) (Compound 2 0.6 mg/kg po alone, time 2.75, time-0 value 244±6): -12±3
- SBP change (quantity not headed in table; as % change of Table I) (Compound 2 0.6 mg/kg po alone, time 4.75, time-0 value 244±6): -11±2

Structure (SMILES): CC1(C)Oc2ccc(C#N)cc2[C@@H](N2CCCC2=O)[C@@H]1O (relative stereo) [Compound 1, 6-cyano-3,4-dihydro-2,2-dimethyl-trans-4-(2-oxo-1-pyrrolidinyl)-2H-benzo[b]pyran-3-ol]
- % change (± sem) of SBP (Group 3: vehicle at 0 h, Compound 1 0.3 mg/kg po at 0.75 h, time 0.75 h (time of compound dosing), initial SBP 262±3 mmHg): -2±2%
- % change (± sem) of SBP (Group 3: vehicle at 0 h, Compound 1 0.3 mg/kg po at 0.75 h, time 1.75 h, initial SBP 262±3 mmHg): -43±2%
- % change (± sem) of SBP (Group 3: vehicle at 0 h, Compound 1 0.3 mg/kg po at 0.75 h, time 2.75 h, initial SBP 262±3 mmHg): -21±2%
- % change (± sem) of SBP (Group 3: vehicle at 0 h, Compound 1 0.3 mg/kg po at 0.75 h, time 4.75 h, initial SBP 262±3 mmHg): -15±3%

Structure (SMILES): CC(N/C(=N\C#N)Nc1ccncc1)C(C)(C)C (stereo not shown) [Pinacidil, Nʺ-Cyano-N-4-pyridyl-Nʹ-1,2,2-trimethylpropylguanidine]
- % change (± s.e.m.) of SBP (Group 3: vehicle at 0 h, pinacidil 1 mg/kg po at 0.75 h, time 0.75 h (time of pinacidil dosing), initial SBP 269±4 mmHg): +4±1%
- % change (± s.e.m.) of SBP (Group 3: vehicle at 0 h, pinacidil 1 mg/kg po at 0.75 h, time 1.75 h, initial SBP 269±4 mmHg, n=8): -33±5(n=8) %
- % change (± s.e.m.) of SBP (Group 3: vehicle at 0 h, pinacidil 1 mg/kg po at 0.75 h, time 2.75 h, initial SBP 269±4 mmHg): -19±3%
- % change (± s.e.m.) of SBP (Group 3: vehicle at 0 h, pinacidil 1 mg/kg po at 0.75 h, time 4.75 h, initial SBP 269±4 mmHg): -9±3%
